Results reported in patent US8993622B2, “Antiviral compounds” (Eirium AB, priority 2010, dated 2015).
Like-named read-outs stand apart in the source and are kept apart here.

How the values were obtained:
[1] = tested on: Ad5; assay: microbe, parasite or virus in culture; assay type: cell-based, human adenovirus; details: for inhibition at 5 µM: A549, read-out: % Inh. at 5 μM; for Inh. (% inhibition of Ad5 at 15 μM): Ad5, 15 μM (Table 2); for activity compared with A02 (inhibition of adenovirus replication): second generation inhibitors, Table 4; for EC50: A549; for inhibition at 20 µM: A549, read-out: % Inh. at 20 μM
[2] = tested on: cells; assay: Cellular toxicity of select compounds (% dead cells, CC50); assay type: cell-based; details: 24 h
[3] = unidentified adenovirus, A549, read-out: % Inh. at 15 μM
[4] = Human adenovirus sp., A549, read-out: Inh. (% inhibition of Ad5 at 15 μM)

For `O=C(Cc1ccccc1NC(=O)c1ccccc1)Nc1ccccc1C(=O)O` [Compound 28, 2-[2-(benzoylamino)phenylacetylamino]benzoic acid], the inhibition at 5 µM ([1]; unidentified adenovirus) was 0% and the inhibition at 15 µM [1, 3] was 0%.
Work on `CS(=O)(=O)Nc1ccccc1C(=O)Nc1ccccc1C(=O)O` [Compound 17b, 2-[2-(Methanesulfonylamino)benzoylamino]benzoic acid] yielded an inhibition at 5 µM ([1]; unidentified adenovirus) of 0% and an inhibition at 15 µM [1, 3] of 23 ± 12%.
With `CCOC(=O)c1ccccc1NC(=O)c1cccc(NC(=O)c2ccccc2)c1` [Compound 7c, Ethyl 2-[(3-benzoylamino)benzoylamino]-benzoate] the “Inh. (% inhibition of Ad5 at 15 μM)” value [1] was 25%.
With `O=C(O)c1ccccc1NC(=O)c1ccccc1NC(=O)C1CCCCC1` [Compound 17e, 2-[[2-(Cyclohexanecarboxylamino)benzoyl]amino]benzoic acid] the “activity compared with A02 (inhibition of adenovirus replication)” value [1] was “diminished but not abolished activity”, the inhibition at 5 µM ([1]; unidentified adenovirus) was 20 ± 1% and the inhibition at 15 µM [1, 3] was 55 ± 11%.
`COc1ccc(C(=O)O)c(NC(=O)c2ccccc2NC(=O)c2ccccc2F)c1` [Compound 35c, 2-[2-(2-fluorobenzoylamino)-benzoylamino]-4-methoxybenzoic acid] was tested, and the inhibition at 5 µM ([1]; unidentified adenovirus) was 79 ± 21% and the inhibition at 15 µM [1, 3] was 95 ± 22%.
Compound `CCOC(=O)c1cccc(NC(=O)c2ccccc2NC(=O)c2ccccc2)c1` [Compound 7a, 4-Ethyl 3-[(2-benzoylamino)benzoylamino]-benzoate] has an inhibition at 15 µM [1, 4] of 0%.
Compound `O=C(O)CCC(=O)Nc1ccccc1C(=O)Nc1ccccc1C(=O)O` [Compound 17f, 2-[2-(4-Carboxybutanoylamido)benzoyl]aminobenzoic acid] has an inhibition at 5 µM ([1]; unidentified adenovirus) of 0% and an inhibition at 15 µM [1, 3] of 0%.
For `COc1ccc(NC(=O)c2ccccc2F)c(C(=O)Nc2ccccc2C(=O)O)c1` [Compound 35i, 2-[5-methoxy-2-(2-fluorobenzoylamino)-benzoylamino]benzoic acid], the EC50 ([1]; unidentified adenovirus) was 1400 nM, the inhibition at 5 µM ([1]; unidentified adenovirus) was 91 ± 6% and the inhibition at 15 µM [1, 3] was 97 ± 1%. The “Toxicity at 30 μM (% dead cells after 24 h)” value [2] was 18 ± 12% and the “Toxicity at 60 μM (% dead cells after 24 h)” value [2] was 28 ± 12%.
Compound `COc1ccc(C(=O)Nc2ccccc2C(=O)O)c(NC(=O)c2ccccc2F)c1` [Compound 35h, 2-[4-methoxy-2-(2-fluorobenzoylamino)-benzoylamino]benzoic acid] has an EC50 ([1]; unidentified adenovirus) of 1500 nM, an inhibition at 5 µM ([1]; unidentified adenovirus) of 92 ± 3% and an inhibition at 15 µM [1, 3] of 89 ± 6%. The “Toxicity at 30 μM (% dead cells after 24 h)” value [2] was 10 ± 15% and the “Toxicity at 60 μM (% dead cells after 24 h)” value [2] was 18 ± 15%.
`NC(=O)c1ccccc1NC(=O)c1cccc(NC(=O)c2ccccc2)c1` [Compound 12d, 2-[[3-(Benzoylamino)benzoyl]amino]-benzamide] showed an inhibition at 5 µM ([1]; Human adenovirus sp.) of 51.1% and an inhibition at 20 µM ([1]; Human adenovirus sp.) of 44.2%.
`O=C(O)c1cccc(NC(=O)c2ccccc2NC(=O)c2ccccc2)c1` [Compound 8a, 3-[(2-benzoylamino)benzoylamino]-benzoic acid] was tested, and the “Inh. (% inhibition of Ad5 at 15 μM)” value [1] was 8%.
In the case of `O=C(O)c1ccccc1NC(=O)c1ccccc1NCc1ccccc1` [Compound 17g, 2-[2-(Benzylamino)benzoylamino]benzoic acid], the “activity compared with A02 (inhibition of adenovirus replication)” value [1] is reported as “diminished but not abolished activity”, the EC50 ([1]; unidentified adenovirus) is reported as 11400 nM and the inhibition at 5 µM ([1]; unidentified adenovirus) is reported as 44 ± 17%. The inhibition at 15 µM [1, 3] was 79 ± 5%, the “Toxicity at 30 μM (% dead cells after 24 h)” value [2] was 6 ± 10% and the “Toxicity at 60 μM (% dead cells after 24 h)” value [2] was 11 ± 13%.
`O=C(Nc1ccccc1C(=O)Nc1ccccc1C(=O)O)c1ccc(F)cc1` [Compound 17j, 2-[2-(4-Fluorobenzoylamino)-benzoylamino]benzoic acid] gave an EC50 ([1]; unidentified adenovirus) of 3500 nM, an inhibition at 5 µM ([1]; unidentified adenovirus) of 76 ± 10% and an inhibition at 15 µM [1, 3] of 95 ± 1%. For the same compound, the “Toxicity at 30 μM (% dead cells after 24 h)” value [2] was 14 ± 10% and the “Toxicity at 60 μM (% dead cells after 24 h)” value [2] was 10 ± 10%.
With `O=C(Nc1ccc(Cl)cc1C(=O)Nc1ccccc1C(=O)O)c1ccccc1F` [Compound 35g, 2-[5-chloro-2-(2-fluorobenzoylamino)-benzoylamino]benzoic acid] the EC50 ([1]; unidentified adenovirus) was 680 nM, the inhibition at 5 µM ([1]; unidentified adenovirus) was 89 ± 2% and the inhibition at 15 µM [1, 3] was 91 ± 2%. For the same compound, the “Toxicity at 30 μM (% dead cells after 24 h)” value [2] was 11 ± 7% and the “Toxicity at 60 μM (% dead cells after 24 h)” value [2] was 24 ± 9%.
Compound `O=C(Nc1ccc(C(=O)Nc2ccccc2C(=O)O)cc1)c1ccccc1` [Compound 8d, 2-[(4-benzoylamino)benzoylamino]-benzoic acid] has an inhibition at 15 µM [1, 4] of 47%.
With `O=C(O)c1ccc(NC(=O)c2ccccc2NC(=O)c2ccccc2)cc1` [Compound 8b, 4-[(2-benzoylamino)benzoylamino]-benzoic acid] the “Inh. (% inhibition of Ad5 at 15 μM)” value [1] was 8%.
With `Cc1ccc(C(=O)Nc2ccccc2C(=O)Nc2ccccc2C(=O)O)cc1` [Compound 12c, 2-[[2-(4-Methyl-benzoylamino)benzoyl]amino]-benzoic acid] the inhibition at 5 µM ([1]; Human adenovirus sp.) was 89.2% and the inhibition at 20 µM ([1]; Human adenovirus sp.) was 98.5%.
With `CCOC(=O)c1ccc(NC(=O)c2ccccc2NC(=O)c2ccccc2)cc1` [Compound 7b, Ethyl 4-[(2-benzoylamino)benzoylamino]-benzoate] the “Inh. (% inhibition of Ad5 at 15 μM)” value [1] was 8%.
`O=C(Nc1ccccc1C(=O)Nc1ccccc1C(=O)Nc1ccccc1C(=O)O)c1ccccc1` [Compound A03, reference compound] was tested, and the “effect on the replication of Ad5 (QPCR)” value ([1]; A549 cells) was “Neither the smaller (A01) nor the larger (A03) molecule showed any anti-adenoviral effect”.
